{
  "source": "patent US11116774B2",
  "about": "“Modulators of toll-like receptors for the treatment of HIV” (Gilead Sciences, Inc., priority 2014, dated 2021)",
  "key": {"[1]": {"system": "SIVmac251", "experiment": "TLR7 modulating compound in cART treated SIV+ rhesus with undetectable plasma viremia: plasma SIV RNA during dosing and after cART cessation (Example 204)", "format": "in vivo, Indian rhesus macaques (Macaca mulatta)", "conditions": "for Plasma SIV RNA: 0.3 mg/kg oral, on cART", "protocol": "A group of 10 Indian rhesus macaques (Macaca mulatta) were treated with the compound of Example 4 or dosing vehicle of Example 201 (placebo group) in a multiple dose, dose escalation study. The macaques were infected with simian immunodeficiency virus (SIVmac251) by repeat low-dose rectal mucosal challenge. Beginning on day 65 post-infection, after establishment of peak viremia and an early viral chronic set point, the animals were treated with a the cART by sub-cutaneous injection at 1 mL/kg, the administration of which was for approximately one year. During the time of cART administration plasma viral loads decreased to undetectable levels (SIV gag RNA<50 copies/mL) by Day 168 post-infection, and were maintained for approximately 5 months prior to administration of the compound of Example 4 by use of daily cART. In addition, animals were maintained on the same cART regimen when dosed with the compound of Example 4. The amount of antiretrovirals administered to each animal, on a daily basis, in the cART formulation were 20 mg/kg tenofovir, 50 mg/kg emtricitibine (FTC), and 2.5 mg/kg dolutegravir. The animals were administered cART daily from approximately day 65 post-infection, through viral suppression and administration of the compound of Example 4 until approximately two weeks post-last dose of the compound from Example 4 at which time cART was stopped to monitor plasma viral load rebound kinetics.\nBeginning on Day 317 post-infection, the animals were dosed once every other week with either the compound of Example 4 or dosing vehicle of Example 201 (placebo group). Four animals were dosed with the compound of Example 4, prepared as described in Example 201. The first week, 1 mL/kg of the 0.1 mg/mL formulation was dosed, corresponding to a dose of 0.1 mg/kg. The third week, 1 mL/kg of the 0.2 mg/mL formulation was dosed, corresponding to a dose of 0.2 mg/kg. On weeks five through thirteen, 1 mL/kg of the 0.3 mg/mL formulation was dosed, corresponding to a dose of 0.3 mg/kg (seven doses in total). The other six animals were controls, of which three were given seven doses of saline by oral gavage once every two weeks; the other three animals were left untreated. Approximately two weeks following the last dose of the compound of Example 4, cART was stopped in the three saline-dosed placebo animals and the four animals who had received the compound of Example 4. Approximately one month later, cART was stopped in the three untreated control animals. Following cART cessation viral loads were monitored for a period of six months.\nEach formulation of the compound of Example 4 or dosing vehicle of Example 201 was thawed at room temperature prior to dosing. Animals were dosed by oral gavage via nasogastric tube.\nPlasma viral loads (expressed as SIV RNA copies per mL of plasma) were determined by quantitative RT-PCR of the SIV RNA measuring the gag gene transcripts at various times throughout the study. Viral loads for each animal for each study day relative to time of administration of the first dose of the compound of Example 4 are depicted in FIG. 3; dosing days are shown by the arrows on the horizontal x-axis.\nAfter two weeks following the last dose of study drug, cART therapy was also stopped in all dosed (placebo dosed included) animals. In the untreated control group of animals, cART was stopped 30 days later. Table 2 denotes the average viral load chronic set point from day 42-81 following cessation of cART for each of the animals in the study. […] However, when comparing the pre-cART plasma SIV RNA chronic set point to the post-cART cessation chronic set point within the animals administered the compound of Example 4 this was approximately ˜0.5 log10 lower (mean change for all animals treated with the compound of Example 4) than the change observed in those animals in the placebo group (mean change for all animals administered dosing vehicle of Example 201)."}, "[2]": {"system": "peripheral NK cells (CD3-CD8+ NKG2A+CD16+CD56+)", "experiment": "Peripheral lymphocyte activation, CD69 by flow cytometry: NK cells (Example 206)", "format": "in vivo, rhesus macaque", "text": "During the course of treatment with the compound of Example 4 as described in Example 204, peripheral lymphocyte activation was monitored in the groups dosed with the compound of Example 4 or the dosing vehicle of Example 201 (placebo), by measuring the expression of the early activation marker CD69 on various lymphocyte subsets by flow cytometry methodology. This methodology was used to quantify the percentage of immune cell subsets expressing the early activation marker. Standard data acquisition techniques were employed on a flow cytometer and by the use of antibodies conjugated to fluorescent molecules where the antibodies recognize rhesus macaque cell surface proteins on various immune cell subsets. In animals dosed with the compound of Example 4, whole blood samples were collected for each dose at various time points both at pre- and post-administration of compound. Total PBMCs were stained in the whole blood samples using antibodies that were chosen to be reactive to rhesus CD3, CD4, CD8, NKG2A, CD16 and CD56, each conjugated to different fluorescent probes to delineate CD3+CD4+CD8− lymphocytes, CD3+CD4−CD8+ lymphocytes and CD3-CD8+ NKG2A+CD16+ CD56+ NK cells. The flow cytometry data presented herein are from animals treated with the compound of Example 4."}},
  "note": "Where “and” joins values, the source holds several entries; their conditions need not be identical. Identical values can stand only once.",
  "data": [
    {"smiles": "CCCCOc1nc(N)c2c(n1)N(Cc1ccc(CN3CCCC3)cc1)CC(=O)N2", "note": "[Example 4]", "values": [
      {"measurement": "Plasma SIV RNA", "setting": "[1]; Dose 4, 1 day post-dose", "result": "<50", "unit": "copies/mL"},
      {"measurement": "Plasma SIV RNA", "setting": "[1]; Dose 4, 3 days post-dose", "result": "<50", "unit": "copies/mL"},
      {"measurement": "Plasma SIV RNA", "setting": "[1]; Dose 4, 7 days post-dose", "result": "<50", "unit": "copies/mL"},
      {"measurement": "Plasma SIV RNA", "setting": "[1]; Dose 4, Pre", "result": "<50", "unit": "copies/mL"},
      {"measurement": "Plasma SIV RNA", "setting": "[1]; Dose 5, 2 days post-dose", "result": "344 copies/mL and 361 copies/mL and 563 copies/mL and 623 copies/mL"},
      {"measurement": "Plasma SIV RNA", "setting": "[1]; Dose 5, 7 days post-dose", "result": "<50", "unit": "copies/mL"},
      {"measurement": "Plasma SIV RNA", "setting": "[1]; Dose 5, Pre", "result": "<50", "unit": "copies/mL"},
      {"measurement": "Plasma SIV RNA", "setting": "[1]; Dose 6, 7 days post-dose", "result": "<50", "unit": "copies/mL"},
      {"measurement": "Plasma SIV RNA", "setting": "[1]; Dose 6, Pre", "result": "<50", "unit": "copies/mL"},
      {"measurement": "Plasma SIV RNA", "setting": "[1]; Dose 7, 7 days post-dose", "result": "<50", "unit": "copies/mL"},
      {"measurement": "Plasma SIV RNA", "setting": "[1]; Dose 7, Pre", "result": "<50", "unit": "copies/mL"},
      {"measurement": "time virus levels remained undetectable after the last dose", "setting": "[1]; SIV+ rhesus on cART", "result": 13, "unit": "days"},
      {"measurement": "plasma virus levels returned to baseline prior to the following dose", "setting": "[1]; SIV+ rhesus on cART, 0.3 mg/kg doses", "result": "< 50", "unit": "copies per mL"},
      {"measurement": "time after dose at which detectable plasma virus was observed", "setting": "[1]; SIV+ rhesus on cART, after each of the last three doses at 0.3 mg/kg, oral, once every other week", "result": "24 to 72", "unit": "h"},
      {"measurement": "pre-cART to post-cART cessation plasma SIV RNA chronic set point change, lower than the change in the placebo group", "setting": "[1]; mean change for all treated animals, set point day 42-81 following cessation of cART", "result": "~0.5", "unit": "log10"},
      {"measurement": "Mean Change in Chronic Set Point", "setting": "[1]; mean of the four dosed animals", "result": "−1.26 -log10 copy/mL"},
      {"measurement": "Plasma SIV RNA Chronic Set Point Day 42-81 Post-cART Cessation", "setting": "[1]; per animal, after seven doses (0.1, 0.2, 0.3 mg/kg) every other week", "result": "3,553 copy/mL and 10,062 copy/mL and 20,146 copy/mL and 24,527 copy/mL"},
      {"measurement": "Plasma SIV RNA Chronic Set Point Day 42-63 Pre-cART", "setting": "[1]; per animal, baseline before cART and before dosing", "result": "237,667 copy/mL and 76,833 copy/mL and 156,333 copy/mL and 666,333 copy/mL"},
      {"measurement": "Change in Chronic Set Point", "setting": "[1]; per animal, post-cART cessation versus pre-cART", "result": "−1.83 -log10 copy/mL and −0.88 -log10 copy/mL and −0.89 -log10 copy/mL and −1.43 -log10 copy/mL"},
      {"measurement": "mean maximum percent change in CD69 expression on NK cells", "setting": "[2]; dose 0.1 mg/kg, any time point (rise by 24 to 72 hours post-dose), pre-dose range 89-95%", "result": 6.5, "unit": "%"},
      {"measurement": "mean maximum percent change in CD69 expression on NK cells", "setting": "[2]; dose 0.2 mg/kg, pre-dose range 83-95%", "result": 9.5, "unit": "%"},
      {"measurement": "mean maximum percent change in CD69 expression on NK cells", "setting": "[2]; first dose of 0.3 mg/kg, pre-dose range 84-95%", "result": 8.3, "unit": "%"},
      {"measurement": "mean maximum percent change in CD69 expression on NK cells", "setting": "[2]; second dose of 0.3 mg/kg, pre-dose range 82-97%", "result": 8.7, "unit": "%"}
    ]}
  ]
}
